{
  "source": "PubChem BioAssay AID252",
  "about": "(DTP/NCI, 2004)",
  "test_system": "BDF1 mice, intracerebral L1210 leukemia, survival T/C",
  "assay": "NCI In Vivo Anticancer Drug Screen. Data for tumor model L1210 Leukemia (intracerebral) in B6D2F1 (BDF1) mice",
  "conditions": "higher = longer survival",
  "in_short": "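Antitumour effect is judged in mice with transplanted tumour by comparing survival of treated (T) against vehicle-dosed (C) groups as T/C.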",
  "note": "Where “and” joins values, the source holds several entries; their conditions need not be identical. Identical values can stand only once. Toxic doses and inconclusive results are not listed.",
  "data": [
    {"smiles": "Cc1cccc2c(Nc3ccc(NS(C)(=O)=O)cc3)c3ccccc3nc12", "values": [
      {"measurement": "T/C", "setting": "endpoint: mean survival time, dose: 10.0 mg/kg/injection, schedule: Q01DX009 (ip), vehicle: saline", "value": "100 % of control"},
      {"measurement": "T/C", "setting": "endpoint: mean survival time, dose: 10.0 mg/kg/injection, schedule: Q01DX009 (sc), vehicle: saline", "value": "96 % of control"},
      {"measurement": "T/C", "setting": "endpoint: mean survival time, dose: 20.0 mg/kg/injection, schedule: Q01DX009 (ip), vehicle: saline", "value": "110 % of control"},
      {"measurement": "T/C", "setting": "endpoint: mean survival time, dose: 20.0 mg/kg/injection, schedule: Q01DX009 (sc), vehicle: saline", "value": "101 % of control"},
      {"measurement": "T/C", "setting": "endpoint: mean survival time, dose: 40.0 mg/kg/injection, schedule: Q01DX009 (ip), vehicle: saline", "value": "112 % of control"},
      {"measurement": "T/C", "setting": "endpoint: mean survival time, dose: 40.0 mg/kg/injection, schedule: Q01DX009 (sc), vehicle: saline", "value": "97 % of control"},
      {"measurement": "T/C", "setting": "endpoint: mean survival time, dose: 80.0 mg/kg/injection, schedule: Q01DX009 (ip), vehicle: saline", "value": "87 % of control"},
      {"measurement": "T/C", "setting": "endpoint: mean survival time, dose: 80.0 mg/kg/injection, schedule: Q01DX009 (sc), vehicle: saline", "value": "104 % of control"}
    ]},
    {"smiles": "O=NN(CCF)C(=O)NC12CC3CC(CC(C3)C1)C2", "values": [
      {"measurement": "T/C", "setting": "endpoint: mean survival time, dose: 10.0 mg/kg/injection, schedule: Q01DX001 (ip), vehicle: other", "value": "103 % of control"},
      {"measurement": "T/C", "setting": "endpoint: mean survival time, dose: 20.0 mg/kg/injection, schedule: Q01DX001 (ip), vehicle: other", "value": "101 % of control"},
      {"measurement": "T/C", "setting": "endpoint: mean survival time, dose: 40.0 mg/kg/injection, schedule: Q01DX001 (ip), vehicle: other", "value": "110 % of control"},
      {"measurement": "T/C", "setting": "endpoint: mean survival time, dose: 60.0 mg/kg/injection, schedule: Q01DX001 (ip), vehicle: other", "value": "120 % of control"}
    ]},
    {"smiles": "N[C@H](C(=O)O)[C@@H]1CC(Cl)=NO1", "values": [
      {"measurement": "T/C", "setting": "endpoint: mean survival time, dose: 1.0 mg/kg/injection, schedule: Q01DX009 (ip), vehicle: saline", "value": "109 % of control"},
      {"measurement": "T/C", "setting": "endpoint: mean survival time, dose: 2.0 mg/kg/injection, schedule: Q01DX009 (ip), vehicle: saline", "value": "114 % of control"},
      {"measurement": "T/C", "setting": "endpoint: mean survival time, dose: 16.0 mg/kg/injection, schedule: Q01DX009 (ip), vehicle: saline", "value": "116 % of control"},
      {"measurement": "T/C", "setting": "endpoint: mean survival time, dose: 32.0 mg/kg/injection, schedule: Q01DX009 (ip), vehicle: saline", "value": "100 % of control"},
      {"measurement": "T/C", "setting": "endpoint: median survival time, dose: 4.0 mg/kg/injection, schedule: Q01DX009 (ip), vehicle: saline", "value": "120 % of control"},
      {"measurement": "T/C", "setting": "endpoint: median survival time, dose: 8.0 mg/kg/injection, schedule: Q01DX009 (ip), vehicle: saline", "value": "124 % of control"},
      {"measurement": "T/C", "setting": "endpoint: median survival time, dose: 32.0 mg/kg/injection, schedule: Q01DX009 (ip), vehicle: saline", "value": "100 % of control"},
      {"measurement": "T/C", "setting": "endpoint: median survival time, dose: 64.0 mg/kg/injection, schedule: Q01DX009 (ip), vehicle: saline", "value": "100 % of control"}
    ]},
    {"smiles": "O=NN(CCCl)C(=O)NC(Cc1ccccc1)C(=O)O", "note": "(stereo not given)", "values": [
      {"measurement": "T/C", "setting": "endpoint: mean survival time, dose: 18.0 mg/kg/injection, schedule: Q01DX001 (ip), vehicle: gum acacia", "value": "119 % of control"},
      {"measurement": "T/C", "setting": "endpoint: mean survival time, dose: 28.0 mg/kg/injection, schedule: Q01DX001 (ip), vehicle: gum acacia", "value": "119 % of control"},
      {"measurement": "T/C", "setting": "endpoint: mean survival time, dose: 42.0 mg/kg/injection, schedule: Q01DX001 (ip), vehicle: gum acacia", "value": "117 % of control"},
      {"measurement": "T/C", "setting": "endpoint: mean survival time, dose: 63.0 mg/kg/injection, schedule: Q01DX001 (ip), vehicle: gum acacia", "value": "120 % of control"},
      {"measurement": "T/C", "setting": "endpoint: mean survival time, dose: 112.0 mg/kg/injection, schedule: Q01DX001 (ip), vehicle: gum acacia", "value": "103 % of control"}
    ]},
    {"smiles": "CCOC(=O)C1(NC(=O)N(CCCl)N=O)CCCCC1", "values": [
      {"measurement": "T/C", "setting": "endpoint: mean survival time, dose: 62.0 mg/kg/injection, schedule: Q01DX001 (ip), vehicle: other", "value": "110 % of control"},
      {"measurement": "T/C", "setting": "endpoint: mean survival time, dose: 250.0 mg/kg/injection, schedule: Q01DX001 (ip), vehicle: other", "value": "192 % of control and 200 % of control"},
      {"measurement": "T/C", "setting": "endpoint: mean survival time, dose: 500.0 mg/kg/injection, schedule: Q01DX001 (ip), vehicle: other", "value": "190 % of control and 196 % of control"},
      {"measurement": "T/C", "setting": "endpoint: mean survival time, dose: 750.0 mg/kg/injection, schedule: Q01DX001 (ip), vehicle: other", "value": "215 % of control"},
      {"measurement": "T/C", "setting": "endpoint: mean survival time, dose: 1000.0 mg/kg/injection, schedule: Q01DX001 (ip), vehicle: other", "value": "156 % of control"}
    ]},
    {"smiles": "CC(Cl)CNC(=O)N(CC(C)Cl)N=O", "note": "(stereo not given)", "values": [
      {"measurement": "T/C", "setting": "endpoint: mean survival time, dose: 250.0 mg/kg/injection, schedule: Q01DX001 (ip), vehicle: carboxymethylcellulose (CMC)", "value": "107 % of control"},
      {"measurement": "T/C", "setting": "endpoint: mean survival time, dose: 500.0 mg/kg/injection, schedule: Q01DX001 (ip), vehicle: carboxymethylcellulose (CMC)", "value": "112 % of control"},
      {"measurement": "T/C", "setting": "endpoint: mean survival time, dose: 1000.0 mg/kg/injection, schedule: Q01DX001 (ip), vehicle: carboxymethylcellulose (CMC)", "value": "204 % of control"}
    ]},
    {"smiles": "O=C1C=C(N2CC2)C(=O)C(N2CC2)=C1N1CC1", "values": [
      {"measurement": "T/C", "setting": "endpoint: mean survival time, dose: 0.01 mg/kg/injection, schedule: Q01DX009 (ip), vehicle: saline", "value": "94 % of control"},
      {"measurement": "T/C", "setting": "endpoint: mean survival time, dose: 0.02 mg/kg/injection, schedule: Q01DX009 (ip), vehicle: saline", "value": "100 % of control"},
      {"measurement": "T/C", "setting": "endpoint: mean survival time, dose: 0.05 mg/kg/injection, schedule: Q01DX009 (ip), vehicle: saline", "value": "116 % of control"}
    ]},
    {"smiles": "O=NN(CCCl)C(=O)Nc1cccc([N+](=O)[O-])c1", "values": [
      {"measurement": "T/C", "setting": "endpoint: mean survival time, dose: 12.0 mg/kg/injection, schedule: Q01DX001 (ip), vehicle: carboxymethylcellulose (CMC)", "value": "102 % of control"},
      {"measurement": "T/C", "setting": "endpoint: mean survival time, dose: 18.0 mg/kg/injection, schedule: Q01DX001 (ip), vehicle: carboxymethylcellulose (CMC)", "value": "118 % of control"},
      {"measurement": "T/C", "setting": "endpoint: mean survival time, dose: 26.0 mg/kg/injection, schedule: Q01DX001 (ip), vehicle: carboxymethylcellulose (CMC)", "value": "117 % of control"},
      {"measurement": "T/C", "setting": "endpoint: mean survival time, dose: 40.0 mg/kg/injection, schedule: Q01DX001 (ip), vehicle: carboxymethylcellulose (CMC)", "value": "115 % of control"}
    ]}
  ]
}
